From patent US20240279207A1, “SUBSTITUTED ACYL SULFONAMIDES FOR TREATING CANCER” (The Broad Institute, Inc., priority 2020, published 2024)

How the values were obtained:
[1] = system: ESR1 transcription in MVLN cells; assay: MVLN reporter assay: repression of ESR1 transcription (luciferase signal); format: cell-based; details: Homo sapiens, MVLN, 24 h, luciferase signal after 24 h, read-out: MVLN reporter assay, IC50 [M] (arithmetic mean)
How it was run: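 To control for cell loss, Alamar Blue (2 h, 530/590 nm) precedes the 24 h luciferase measurement. The reporter is an ERE from the Xenopus vitellogenin A2 gene driving luciferase, stably transfected into ER-expressing MVLN cells; duplicate samples.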

[2] = target: T1, Recombinant human His-tagged Kat6a protein (amino acids 194-810) (Homo sapiens, UniProt Q92794); assay: Kat6a activity assay (TR-FRET, acetylation of Histone-H4-derived peptide); format: biochemical; details: 60 mins at 22° C., 220 nM H4 peptide, 600 nM Acetyl Coenzyme A, read-out: KAT6A - DPF/HAT domain IC50 [mol/l] (arithmetic mean)
T1 construct: Kat6a protein (amino acids 194-810); His
T1 sequence (Q92794 194-810): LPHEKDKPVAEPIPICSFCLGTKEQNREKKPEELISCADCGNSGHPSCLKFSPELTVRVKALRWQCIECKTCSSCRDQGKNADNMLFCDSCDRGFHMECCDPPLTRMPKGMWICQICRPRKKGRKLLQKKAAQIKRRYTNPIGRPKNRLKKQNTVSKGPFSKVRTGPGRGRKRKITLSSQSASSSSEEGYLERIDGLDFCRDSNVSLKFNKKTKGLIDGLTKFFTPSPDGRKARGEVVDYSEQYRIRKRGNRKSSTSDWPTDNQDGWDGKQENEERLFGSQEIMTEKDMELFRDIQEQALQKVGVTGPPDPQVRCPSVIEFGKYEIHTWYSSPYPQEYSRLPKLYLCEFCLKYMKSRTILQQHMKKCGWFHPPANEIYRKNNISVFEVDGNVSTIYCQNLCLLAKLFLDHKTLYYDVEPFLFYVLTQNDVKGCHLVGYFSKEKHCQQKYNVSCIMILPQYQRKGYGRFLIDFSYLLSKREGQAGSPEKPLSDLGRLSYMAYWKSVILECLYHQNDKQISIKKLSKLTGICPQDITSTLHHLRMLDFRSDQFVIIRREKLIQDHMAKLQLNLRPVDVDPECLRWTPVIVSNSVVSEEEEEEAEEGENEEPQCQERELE

Row | IC50 [1] [M] | IC50 [2] [nM] | Structure (SMILES)
1 | 8.1e-07 | 272 | CC(=O)c1ccc(Cl)c(S(=O)(=O)NC(=O)c2cc3c(F)cc(N4CCC4)cc3o2)c1 [Example 99, N-(5-Acetyl-2-chlorobenzene-1-sulfonyl)-6-(azetidin-1-yl)-4-fluoro-1-benzofuran-2-carboxamide]
2 | 1.94e-06 | 121 | CC(C)OC(=O)c1ccccc1S(=O)(=O)NC(=O)c1cc2c(F)cc(N3CCC3)cc2o1 [Example 101, Propan-2-yl 2-{[6-(azetidin-1-yl)-4-fluoro-1-benzofuran-2-carbonyl]sulfamoyl}benzoate]
3 | 4.07e-06 | 116 | COC(=O)CCc1ccccc1S(=O)(=O)NC(=O)c1cc2c(F)cc(N3CCC3)cc2o1 [Example 102, Methyl 3-(2-{[6-(azetidin-1-yl)-4-fluoro-1-benzofuran-2-carbonyl]sulfamoyl}phenyl)propanoate]
4 | 1.02e-05 | 613 | O=C(NS(=O)(=O)c1cc(C(F)(F)F)cnc1Cl)c1cc2c(F)cc(N3CCC3)cc2o1 [Example 103, 6-(Azetidin-1-yl)-N-[2-chloro-5-(trifluoromethyl)pyridine-3-sulfonyl]-4-fluoro-1-benzofuran-2-carboxamide]
5 | 1.05e-05 | 793 | Cc1nc(N)c(S(=O)(=O)NC(=O)c2cc3c(F)cc(N4CCC4)cc3o2)c(C)c1Cl [Example 104, N-(2-amino-5-chloro-4,6-dimethylpyridine-3-sulfonyl)-6-(azetidin-1-yl)-4-fluoro-1-benzofuran-2-carboxamide]
6 | > 2e-05 | > 20000 | O=C(NS(=O)(=O)c1ccc(O)c2ccccc12)c1cc2c(F)cc(N3CCC3)cc2o1 [Example 106, 6-(Azetidin-1-yl)-4-fluoro-N-(4-hydroxynaphthalene-1-sulfonyl)-1-benzofuran-2-carboxamide]
7 | 1.29e-07 | 68.6 | O=C(NS(=O)(=O)c1cccc2c1CCCC2)c1cc2c(F)cc(N3CC(F)C3)cc2o1 [Example 108, 4-Fluoro-6-(3-fluoroazetidin-1-yl)-N-(5,6,7,8-tetrahydronaphthalene-1-sulfonyl)-1-benzofuran-2-carboxamide]
8 | 5.92e-07 | 172 | O=C(NS(=O)(=O)c1cccc2c1OCCO2)c1cc2c(F)cc(N3CC(F)C3)cc2o1 [Example 109, N-(2,3-dihydro-1,4-benzodioxine-5-sulfonyl)-4-fluoro-6-(3-fluoroazetidin-1-yl)-1-benzofuran-2-carboxamide]
9 | 5.47e-07 | 208 | O=C(NS(=O)(=O)c1cccc2c1NCCC2)c1cc2c(F)cc(N3CC(F)C3)cc2o1 [Example 110, 4-Fluoro-6-(3-fluoroazetidin-1-yl)-N-(1,2,3,4-tetrahydroquinoline-8-sulfonyl)-1-benzofuran-2-carboxamide]
10 | > 2e-05 | 3080 | O=C(NS(=O)(=O)c1ccnc2ccccc12)c1cc2c(F)cc(N3CC(F)C3)cc2o1 [Example 111, 4-Fluoro-6-(3-fluoroazetidin-1-yl)-N-(quinoline-4-sulfonyl)-1-benzofuran-2-carboxamide]
11 | > 2e-05 | 5210 | CN1CCc2c(cccc2S(=O)(=O)NC(=O)c2cc3c(F)cc(N4CC(F)C4)cc3o2)C1 [Example 112, 4-Fluoro-6-(3-fluoroazetidin-1-yl)-N-(2-methyl-1,2,3,4-tetrahydroisoquinoline-5-sulfonyl)-1-benzofuran-2-carboxamide]
12 | > 2e-05 | 406 | O=C(NS(=O)(=O)c1ccccc1C(Cl)Cl)c1cc2c(F)cc(N3CC(F)C3)cc2o1 [Example 114, N-[2-(dichloromethyl)benzene-1-sulfonyl]-4-fluoro-6-(3-fluoroazetidin-1-yl)-1-benzofuran-2-carboxamide]
13 | 3.81e-06 | 563 | Cc1nc(-c2ccc(S(=O)(=O)NC(=O)c3cc4c(F)cc(N5CC(F)C5)cc4o3)cc2)cs1 [Example 115, 4-Fluoro-6-(3-fluoroazetidin-1-yl)-N-[4-(2-methyl-1,3-thiazol-4-yl)benzene-1-sulfonyl]-1-benzofuran-2-carboxamide]
14 | 1.73e-05 | 12900 | CCOc1ccccc1S(=O)(=O)NC(=O)c1cc2ccc(N3CC(C(F)(F)F)C3)cc2o1 [Example 117, N-(2-Ethoxybenzene-1-sulfonyl)-6-[3-(trifluoromethyl)azetidin-1-yl]-1-benzofuran-2-carboxamide]
15 | > 2e-05 | 13400 | CCOc1ccccc1S(=O)(=O)NC(=O)c1cc2ccc(N3CC(OCC)C3)cc2o1 [Example 121, 6-(3-Ethoxyazetidin-1-yl)-N-(2-ethoxybenzene-1-sulfonyl)-1-benzofuran-2-carboxamide]
16 | > 2e-05 | > 20000 | CCOc1ccccc1S(=O)(=O)NC(=O)c1cc2ccc(N3CC4(CCC4)C3)cc2o1 [Example 123, 6-(2-Azaspiro[3.3]heptan-2-yl)-N-(2-ethoxybenzene-1-sulfonyl)-1-benzofuran-2-carboxamide]
17 | 1.74e-07 | 26.2 | COc1ccc(N2CCOCC2)cc1S(=O)(=O)NC(=O)c1cc2c(F)cc(N3CCC3)cc2o1 [Example 137, 6-(Azetidin-1-yl)-4-fluoro-N-[2-methoxy-5-(morpholin-4-yl)benzene-1-sulfonyl]-1-benzofuran-2-carboxamide]
18 | 2.36e-07 | 41.3 | COc1ccc(Br)cc1S(=O)(=O)NC(=O)c1cc2c(F)cc(N3CCC3)cc2o1 [Example 139, 6-(azetidin-1-yl)-N-(5-bromo-2-methoxybenzene-1-sulfonyl)-4-fluoro-1-benzofuran-2-carboxamide]
19 | 5.12e-07 | 139 | O=C(NS(=O)(=O)c1cccc2c1S(=O)(=O)CCC2)c1cc2c(F)cc(N3CCC3)cc2o1 [Example 141, 6-(Azetidin-1-yl)-N-(1,1-dioxo-1,2,3,4-tetrahydro-1-benzothiopyran-8-sulfonyl)-4-fluoro-1-benzofuran-2-carboxamide]
20 | 1.2e-06 | 149 | O=C(NS(=O)(=O)c1c(Cl)ccc2c1OC(F)(F)O2)c1cc2c(F)cc(N3CCC3)cc2o1 [Example 142, 6-(Azetidin-1-yl)-N-(5-chloro-2,2-difluoro-2H-1,3-benzodioxole-4-sulfonyl)-4-fluoro-1-benzofuran-2-carboxamide]
21 | 4.61e-06 | 226 | CCn1nc(S(=O)(=O)NC(=O)c2cc3c(F)cc(N4CCC4)cc3o2)c2cccnc21 [Example 143, 6-(Azetidin-1-yl)-N-(1-ethyl-1H-pyrazolo[3,4-b]pyridine-3-sulfonyl)-4-fluoro-1-benzofuran-2-carboxamide]
22 | 7.93e-06 | 548 | Cn1nc(S(=O)(=O)NC(=O)c2cc3c(F)cc(N4CCC4)cc3o2)c2ccc(C(F)(F)F)nc21 [Example 144, 6-(Azetidin-1-yl)-4-fluoro-N-[1-methyl-6-(trifluoromethyl)-1H-pyrazolo[3,4-b]pyridine-3-sulfonyl]-1-benzofuran-2-carboxamide]
23 | 8.4e-06 | 402 | Cc1ccc2c(S(=O)(=O)NC(=O)c3cc4c(F)cc(N5CCC5)cc4o3)nn(C)c2n1 [Example 145, 6-(Azetidin-1-yl)-N-(1,6-dimethyl-1H-pyrazolo[3,4-b]pyridine-3-sulfonyl)-4-fluoro-1-benzofuran-2-carboxamide]
24 | 2.83e-06 | 290 | Cc1ccnc2c1c(S(=O)(=O)NC(=O)c1cc3c(F)cc(N4CCC4)cc3o1)nn2C [Example 146, 6-(Azetidin-1-yl)-N-(1,4-dimethyl-1H-pyrazolo[3,4-b]pyridine-3-sulfonyl)-4-fluoro-1-benzofuran-2-carboxamide]
25 | 2.98e-06 | 91.5 | CCCc1ccc2nc(Cl)c(S(=O)(=O)NC(=O)c3cc4c(F)cc(N5CCC5)cc4o3)n2n1 [Example 147, 6-(Azetidin-1-yl)-N-(2-chloro-6-propylimidazo[1,2-b]pyridazine-3-sulfonyl)-4-fluoro-1-benzofuran-2-carboxamide]
26 | 3.14e-06 | 274 | CCSc1nc2ccccn2c1S(=O)(=O)NC(=O)c1cc2c(F)cc(N3CCC3)cc2o1 [Example 148, 6-(Azetidin-1-yl)-N-[2-(ethylsulfanyl)imidazo[1,2-a]pyridine-3-sulfonyl]-4-fluoro-1-benzofuran-2-carboxamide]
27 | 3.66e-06 | 261 | CSc1nc2ccccn2c1S(=O)(=O)NC(=O)c1cc2c(F)cc(N3CCC3)cc2o1 [Example 149, 6-(Azetidin-1-yl)-4-fluoro-N-[2-(methylsulfanyl)imidazo[1,2-a]pyridine-3-sulfonyl]-1-benzofuran-2-carboxamide]
28 | 1.05e-07 | 25.7 | COc1cc(C)ccc1S(=O)(=O)NC(=O)c1cc2c(F)cc(N3CC(F)C3)cc2o1 [Example 158, 4-Fluoro-6-(3-fluoroazetidin-1-yl)-N-(2-methoxy-4-methylbenzene-1-sulfonyl)-1-benzofuran-2-carboxamide]
29 | 7.45e-07 | 34.3 | O=C(NS(=O)(=O)c1cccc2c1OC(F)(F)C(F)(F)O2)c1cc2c(F)cc(N3CC(F)C3)cc2o1 [Example 159, 4-Fluoro-6-(3-fluoroazetidin-1-yl)-N-(2,2,3,3-tetrafluoro-2,3-dihydro-1,4-benzodioxine-5-sulfonyl)-1-benzofuran-2-carboxamide]
30 | 2.34e-06 | 251 | CC(C)N(C)c1cc(F)c(S(=O)(=O)NC(=O)c2cc3c(F)cc(N4CC(F)C4)cc3o2)c(F)c1 [Example 164, N-{2,6-difluoro-4-[methyl(propan-2-yl)amino]benzene-1-sulfonyl}-4-fluoro-6-(3-fluoroazetidin-1-yl)-1-benzofuran-2-carboxamide]
